Measurements taken from publication PMC8330742, “New benzothieno[2,3-c]pyridines as non-steroidal CYP17 inhibitors: design, synthesis, anticancer screening, apoptosis induction, and in silico ADME profile studies” (Journal of Enzyme Inhibition and Medicinal Chemistry, 2021).

Legend:
[1] = system: CCRF-CEM; assay: NCI-60 SRB screen; assay type: cell-based; details: single dose 10^−5 M
[2] = system: HL-60(TB); assay: NCI-60 SRB screen; assay type: cell-based, human; details: HL-60 (TB); single dose 10^−5 M
[3] = system: K-562; assay: NCI-60 SRB screen; assay type: cell-based, human; details: K-562; single dose 10^−5 M
[4] = system: MOLT-4; assay: NCI-60 SRB screen; assay type: cell-based; details: MOLT-4; single dose 10^−5 M
[5] = system: RPMI-8226; assay: NCI-60 SRB screen; assay type: cell-based; details: RPMI-8226; single dose 10^−5 M
[6] = system: SR; assay: NCI-60 SRB screen; assay type: cell-based; details: single dose 10^−5 M
[7] = system: A549/ATCC; assay: NCI-60 SRB screen; assay type: cell-based, human; details: single dose 10^−5 M
[8] = system: EKVX; assay: NCI-60 SRB screen; assay type: cell-based, human; details: single dose 10^−5 M
[9] = system: HOP-62; assay: NCI-60 SRB screen; assay type: cell-based, human; details: HOP-62; single dose 10^−5 M
[10] = system: HOP-92; assay: NCI-60 SRB screen; assay type: cell-based, human; details: HOP-92; single dose 10^−5 M
[11] = system: NCI-H226; assay: NCI-60 SRB screen; assay type: cell-based, human; details: NCI-H226; single dose 10^−5 M
[12] = system: NCI-H23; assay: NCI-60 SRB screen; assay type: cell-based, human; details: NCI-H23; single dose 10^−5 M
[13] = system: NCI-H322M; assay: NCI-60 SRB screen; assay type: cell-based, human; details: single dose 10^−5 M
[14] = system: NCI-H460; assay: NCI-60 SRB screen; assay type: cell-based, human; details: NCI-H460; single dose 10^−5 M
[15] = system: NCI-H522; assay: NCI-60 SRB screen; assay type: cell-based, human; details: NCI-H522; single dose 10^−5 M
[16] = system: COLO 205; assay: NCI-60 SRB screen; assay type: cell-based, human; details: COLO 205; single dose 10^−5 M
[17] = system: HCC-2998; assay: NCI-60 SRB screen; assay type: cell-based, human; details: HCC-2998; single dose 10^−5 M
[18] = system: HCT-116; assay: NCI-60 SRB screen; assay type: cell-based, human; details: HCT-116; single dose 10^−5 M
[19] = system: HCT-15; assay: NCI-60 SRB screen; assay type: cell-based, human; details: HCT-15; single dose 10^−5 M
[20] = system: HT-29; assay: NCI-60 SRB screen; assay type: cell-based; details: HT-29; single dose 10^−5 M
[21] = system: KM12; assay: NCI-60 SRB screen; assay type: cell-based, human; details: KM12; single dose 10^−5 M
[22] = system: SW-620; assay: NCI-60 SRB screen; assay type: cell-based; details: SW-620; single dose 10^−5 M
[23] = system: SF-268; assay: NCI-60 SRB screen; assay type: cell-based, human; details: SF-268; single dose 10^−5 M
[24] = system: SF-295; assay: NCI-60 SRB screen; assay type: cell-based, human; details: SF-295; single dose 10^−5 M
[25] = system: SF-539; assay: NCI-60 SRB screen; assay type: cell-based, human; details: SF-539; single dose 10^−5 M
[26] = system: SNB-19; assay: NCI-60 SRB screen; assay type: cell-based; details: SNB-19; single dose 10^−5 M
[27] = system: SNB-75; assay: NCI-60 SRB screen; assay type: cell-based, human; details: SNB-75; single dose 10^−5 M
[28] = system: U251; assay: NCI-60 SRB screen; assay type: cell-based, human; details: U251; single dose 10^−5 M
[29] = system: LOX IMVI; assay: NCI-60 SRB screen; assay type: cell-based, human; details: single dose 10^−5 M
[30] = system: MALME-3M; assay: NCI-60 SRB screen; assay type: cell-based, human; details: single dose 10^−5 M
[31] = system: M14; assay: NCI-60 SRB screen; assay type: cell-based, human; details: M14; single dose 10^−5 M
[32] = system: MDA-MB-435; assay: NCI-60 SRB screen; assay type: cell-based; details: MDA-MB435; single dose 10^−5 M
[33] = system: SK-MEL-2; assay: NCI-60 SRB screen; assay type: cell-based, human; details: SK-MEL-2; single dose 10^−5 M
[34] = system: SK-MEL-28; assay: NCI-60 SRB screen; assay type: cell-based; details: SK-MEL-28; single dose 10^−5 M
[35] = system: SK-MEL-5; assay: NCI-60 SRB screen; assay type: cell-based, human; details: SK-MEL-5; single dose 10^−5 M
[36] = system: UACC-257; assay: NCI-60 SRB screen; assay type: cell-based, human; details: UACC-275 (so in the source); single dose 10^−5 M
[37] = system: UACC-62; assay: NCI-60 SRB screen; assay type: cell-based, human; details: UACC-62; single dose 10^−5 M
[38] = system: IGROV1; assay: NCI-60 SRB screen; assay type: cell-based, human; details: IGROV1; single dose 10^−5 M
[39] = system: OVCAR-3; assay: NCI-60 SRB screen; assay type: cell-based, human; details: OVCAR-3; single dose 10^−5 M
[40] = system: OVCAR-4; assay: NCI-60 SRB screen; assay type: cell-based, human; details: OVCAR-4; single dose 10^−5 M
[41] = system: OVCAR-5; assay: NCI-60 SRB screen; assay type: cell-based, human; details: OVCAR-5; single dose 10^−5 M
[42] = system: OVCAR-8; assay: NCI-60 SRB screen; assay type: cell-based, human; details: OVCAR-8; single dose 10^−5 M
[43] = system: NCI/ADR-RES; assay: NCI-60 SRB screen; assay type: cell-based, human; details: single dose 10^−5 M
[44] = system: SK-OV-3; assay: NCI-60 SRB screen; assay type: cell-based, human; details: SK-OV-3; single dose 10^−5 M
[45] = system: 786-0; assay: NCI-60 SRB screen; assay type: cell-based; details: 786-0; single dose 10^−5 M
[46] = system: A498; assay: NCI-60 SRB screen; assay type: cell-based, human; details: A498; single dose 10^−5 M
[47] = system: ACHN; assay: NCI-60 SRB screen; assay type: cell-based; details: single dose 10^−5 M
[48] = system: CAKI-1; assay: NCI-60 SRB screen; assay type: cell-based, human; details: CAKI-1; single dose 10^−5 M
[49] = system: RXF 393; assay: NCI-60 SRB screen; assay type: cell-based, human; details: RXF 393; single dose 10^−5 M
[50] = system: SN12C; assay: NCI-60 SRB screen; assay type: cell-based, human; details: SN 12 C; single dose 10^−5 M
[51] = system: TK-10; assay: NCI-60 SRB screen; assay type: cell-based, human; details: TK-10; single dose 10^−5 M
[52] = system: UO-31; assay: NCI-60 SRB screen; assay type: cell-based, human; details: UO-31; single dose 10^−5 M
[53] = system: panel of 60 cancer cell lines; assay: NCI-60 SRB screen, mean or range over the panel; assay type: cell-based, human; details: mean over the cell lines; single dose 10^−5 M

Compound: COc1ccc(C2NC(=O)Cc3c2sc2c(F)cccc32)c(OC)c1 (stereo not shown) [Compound 3a]
- Growth inhibition (%) [1]: −5.88%
- Growth inhibition (%) [2]: −7.79%
- Growth inhibition (%) [3]: 12.84%
- Growth inhibition (%) [4]: 2.64%
- Growth inhibition (%) [5]: −2.54%
- Growth inhibition (%) [6]: 28.66%
- Growth inhibition (%) [7]: −10.00%
- Growth inhibition (%) [8]: 7.10%
- Growth inhibition (%) [9]: 11.63%
- Growth inhibition (%) [10]: 2.88%
- Growth inhibition (%) [11]: 13.11%
- Growth inhibition (%) [12]: 0.15%
- Growth inhibition (%) [13]: −3.18%
- Growth inhibition (%) [14]: 2.47%
- Growth inhibition (%) [15]: 4.48%
- Growth inhibition (%) [16]: −16.49%
- Growth inhibition (%) [17]: −15.27%
- Growth inhibition (%) [18]: −0.50%
- Growth inhibition (%) [19]: −3.42%
- Growth inhibition (%) [20]: −7.86%
- Growth inhibition (%) [21]: 7.40%
- Growth inhibition (%) [22]: 3.98%
- Growth inhibition (%) [23]: 8.45%
- Growth inhibition (%) [24]: −2.52%
- Growth inhibition (%) [25]: 11.49%
- Growth inhibition (%) [26]: 1.20%
- Growth inhibition (%) [27]: 17.27%
- Growth inhibition (%) [28]: 2.07%
- Growth inhibition (%) [29]: 5.88%
- Growth inhibition (%) [30]: 15.80%
- Growth inhibition (%) [31]: 4.96%
- Growth inhibition (%) [32]: 9.40%
- Growth inhibition (%) [33]: −25.13%
- Growth inhibition (%) [34]: −11.36%
- Growth inhibition (%) [35]: 2.83%
- Growth inhibition (%) [36]: −6.31%
- Growth inhibition (%) [37]: 10.62%
- Growth inhibition (%) [38]: 8.40%
- Growth inhibition (%) [39]: −0.33%
- Growth inhibition (%) [40]: 3.35%
- Growth inhibition (%) [41]: −3.20%
- Growth inhibition (%) [42]: −3.27%
- Growth inhibition (%) [43]: −2.37%
- Growth inhibition (%) [44]: −0.85%
- Growth inhibition (%) [45]: −7.41%
- Growth inhibition (%) [46]: 9.33%
- Growth inhibition (%) [47]: 1.30%
- Growth inhibition (%) [48]: 23.33%
- Growth inhibition (%) [49]: −2.63%
- Growth inhibition (%) [50]: −0.49%
- Growth inhibition (%) [51]: −29.42%
- Growth inhibition (%) [52]: 32.68%
- Mean growth inhibition (%) [53]: 6.67%

Compound: O=C1Cc2c(sc3c(F)cccc23)C(c2ccccc2[N+](=O)[O-])N1 (stereo not shown) [Compound 3c]
- Growth inhibition (%) [1]: −10.16%
- Growth inhibition (%) [2]: −15.87%
- Growth inhibition (%) [3]: 2.86%
- Growth inhibition (%) [4]: −5.89%
- Growth inhibition (%) [5]: 4.62%
- Growth inhibition (%) [6]: 0.60%
- Growth inhibition (%) [7]: −5.43%
- Growth inhibition (%) [8]: 15.84%
- Growth inhibition (%) [9]: 8.52%
- Growth inhibition (%) [10]: 7.78%
- Growth inhibition (%) [11]: 20.72%
- Growth inhibition (%) [12]: 1.41%
- Growth inhibition (%) [13]: 1.00%
- Growth inhibition (%) [14]: 23.13%
- Growth inhibition (%) [15]: −1.98%
- Growth inhibition (%) [16]: −12.74%
- Growth inhibition (%) [17]: −18.72%
- Growth inhibition (%) [18]: 14.07%
- Growth inhibition (%) [19]: −10.00%
- Growth inhibition (%) [20]: −12.09%
- Growth inhibition (%) [21]: −0.49%
- Growth inhibition (%) [22]: 20.70%
- Growth inhibition (%) [23]: 6.16%
- Growth inhibition (%) [24]: −0.58%
- Growth inhibition (%) [25]: 10.42%
- Growth inhibition (%) [26]: −0.33%
- Growth inhibition (%) [27]: 10.03%
- Growth inhibition (%) [28]: 14.88%
- Growth inhibition (%) [29]: 2.71%
- Growth inhibition (%) [30]: 5.53%
- Growth inhibition (%) [31]: −0.72%
- Growth inhibition (%) [32]: −7.97%
- Growth inhibition (%) [33]: −25.53%
- Growth inhibition (%) [34]: −20.20%
- Growth inhibition (%) [35]: 2.72%
- Growth inhibition (%) [36]: −19.98%
- Growth inhibition (%) [37]: 12.83%
- Growth inhibition (%) [38]: 34.55%
- Growth inhibition (%) [39]: 2.18%
- Growth inhibition (%) [40]: 7.00%
- Growth inhibition (%) [41]: −8.05%
- Growth inhibition (%) [42]: −7.33%
- Growth inhibition (%) [43]: −5.76%
- Growth inhibition (%) [44]: 6.94%
- Growth inhibition (%) [45]: −9.68%
- Growth inhibition (%) [46]: −15.47%
- Growth inhibition (%) [47]: −0.56%
- Growth inhibition (%) [48]: 24.17%
- Growth inhibition (%) [49]: −24.83%
- Growth inhibition (%) [50]: 0.94%
- Growth inhibition (%) [51]: −41.81%
- Growth inhibition (%) [52]: 30.62%
- Mean growth inhibition (%) [53]: 1.33%
